# Reference: patent publication US8263584B2, “Imidazopyridines” (Hoffmann-La Roche Inc., priority 2009, dated 2012)
# Target: T1, PDE10A2 (Homo sapiens, UniProt Q9Y233)
# T1 construct: residues serine 449 to aspartate 789; His6 (H6) with Gateway linker and thrombin cleavage site (N, cleaved yes); made in house; host or cells: E. coli BL21(DE3) pLysS
# Assay: PDE10A2 inhibition, Scintillation Proximity Assay (SPA)
# Format: biochemical
# Conditions: catalytic domain of human PDE10A2 (S449-D789), 0.25 nM enzyme, 50 nM cGMP and 50 nM [3H]-cGMP, 30 minutes at room temperature
# Experimental: The following tests were carried out in order to determine the activity of the compounds of the present invention. PDE10 activity of the compounds of the present invention is determined using a Scintillation Proximity Assay (SPA)-based method similar to the one previously described (Fawcett, L. et al., Proc Natl Acad Sci USA (2000) 97(7):3702-3707). PDE10A1 and PDE10A2 are two splice variants of PDE10A. There are these 2 splice variants known, which differ in the N-terminal part of the protein. The catalytic domains of PDE10A1 and PDE10A2 are identical. The assay for PDE10A2 described below is therefore also representative for PDE10A1 and also for PDE10A in general. The PDE10A2 assay was performed in a two step procedure in 96-well micro titer plates. […] A range of concentrations of the potential inhibitor was used to generate data for calculating the concentration of inhibitor resulting in 50% of the effect (e.g. IC50, the concentration of the competitor inhibiting PDE10A2 activity 50%). Non-specific activity was tested without the enzyme. The reaction was initiated by addition of the substrate solution (cGMP and [^3H]-cGMP) and allowed to progress for 30 minutes at room temperature. The reaction was terminated by transferring 50 μl of the reaction mixture into an OptiPlate (Perkin Elmer) containing 25 μl of YSi-SPA scintillation beads (GE Healthcare) in 18 mM zinc sulphate solution (stop reagent). After 1 h under shaking, the plate was centrifuged one minute at 1000 rpm to allow beads to settle. Afterwards, radioactive counts were measured on a Perkin Elmer TopCount Scintillation plate reader. The catalytic domain of human PDE10[…], was amplified by PCR using cDNA (Origene) and the oligonucleotides 5'-[…]00001:character} […] no. 1) (with AttB1 recombination site in bold and thrombin protease cleavage site in […] no. 2) (with AttB2 recombination site in bold) which conferred Gateway recombination sites. The PCR product was used in a BP recombination reaction with pDONR221 to generate […]([…]-[…]) which was DNA sequence verified and then used in an LR recombination reaction with a Gateway modified version of pET11a. […] About 30% of the protein was in the soluble fraction of the cell homogenate. The protein was purified using sequential chromatography on Ni-NTA and […]. After thrombin digest at room temperature a […]/HiTrap Benzamindin chromatography removed impurities, uncleaved protein and thrombin. Final purification of PDE10A2([…]-[…]) was performed on a Superdex 75 size exclusion chromatography equilibrated with 25 mM HEPES pH 8.4, 0.15 M NaCl. The yield of pure protein was 2 mg/liter of culture volume is relatively low. The purity of the protein was >95%, monomeric and monodisperse as shown by SDS-PAGE, HPLC and analytical ultracentrifugation.
# T1 sequence (Q9Y233 715-1055): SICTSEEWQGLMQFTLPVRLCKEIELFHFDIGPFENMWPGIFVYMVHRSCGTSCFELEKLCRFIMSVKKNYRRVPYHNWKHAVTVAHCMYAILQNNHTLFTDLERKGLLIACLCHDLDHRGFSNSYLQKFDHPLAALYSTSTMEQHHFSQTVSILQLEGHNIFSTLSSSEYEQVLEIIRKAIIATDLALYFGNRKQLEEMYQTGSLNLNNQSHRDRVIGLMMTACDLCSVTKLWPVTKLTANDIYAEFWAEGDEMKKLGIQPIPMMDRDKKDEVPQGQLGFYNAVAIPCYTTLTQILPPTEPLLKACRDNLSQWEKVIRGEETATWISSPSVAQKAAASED
row,SMILES,IC50
1,"CNCCN(C)C(=O)c1cnn(C)c1C(=O)Nc1ccn2cc(-c3ccccc3)nc2c1 [Example 21, 2-Methyl-2H-pyrazole-3,4-dicarboxylic acid 4-[methyl-(2-methylamino-ethyl)-amide]3-[(2-phenyl-imidazo[1,2-a]pyridin-7-yl)-amide]]",2100 pM
2,"Cn1ncc(C(=O)N2CCC2)c1C(=O)Nc1cc2nc(-c3ccccc3)cn2cc1Br [Example 67, 4-(Azetidine-1-carbonyl)-2-methyl-2H-pyrazole-3-carboxylic acid (6-bromo-2-phenyl-imidazo[1,2-a]pyridin-7-yl)-amide]",100 pM
3,"CC(O)CNC(=O)c1cnn(C)c1C(=O)Nc1ccn2cc(-c3ccccc3)nc2c1 (stereo not drawn) [Example 35, 2-Methyl-2H-pyrazole-3,4-dicarboxylic acid 4-[(2-hydroxy-propyl)-amide]3-[(2-phenyl-imidazo[1,2-a]pyridin-7-yl)-amide]]",900 pM
4,"Cn1ncc(C(=O)N2CCOCC2)c1C(=O)Nc1cc2nc(-c3ccccc3)cn2cc1C1CC1 [Example 75, 2-Methyl-4-(morpholine-4-carbonyl)-2H-pyrazole-3-carboxylic acid (6-cyclopropyl-2-phenyl-imidazo[1,2-a]pyridin-7-yl)-amide]",1000 pM
5,"CC(CO)NC(=O)c1cnn(C)c1C(=O)Nc1ccn2cc(-c3ccccc3)nc2c1 (stereo not drawn) [Example 36, 2-Methyl-2H-pyrazole-3,4-dicarboxylic acid 4-[(2-hydroxy-1-methyl-ethyl)-amide]3-[(2-phenyl-imidazo[1,2-a]pyridin-7-yl)-amide]]",1900 pM
6,"Cn1ncc(C(=O)NC(C)(C)C)c1C(=O)Nc1ccn2cc(-c3ccccc3)nc2c1 [Example 24, 2-Methyl-2H-pyrazole-3,4-dicarboxylic acid 4-tert-butylamide 3-[(2-phenyl-imidazo[1,2-a]pyridin-7-yl)-amide]]",2300 pM
7,"Cn1ncc(C(=O)N2CCC2)c1C(=O)Nc1cc2nc(-c3ccccc3)cn2cn1 [Example 86, 4-(Azetidine-1-carbonyl)-2-methyl-2H-pyrazole-3-carboxylic acid (2-phenyl-imidazo[1,2-c]pyrimidin-7-yl)-amide]",300 pM
8,"CNC(=O)c1cnn(C)c1C(=O)Nc1cc2nc(-c3ccccc3)cn2cn1 [Example 84, 2-Methyl-2H-pyrazole-3,4-dicarboxylic acid 4-methylamide 3-[(2-phenyl-imidazo[1,2-c]pyrimidin-7-yl)-amide]]",2700 pM
9,"Cn1ncc(C(=O)N2CCC2)c1C(=O)Nc1ccn2cc(-c3ccccc3)nc2c1 [Example 26, 4-(Azetidine-1-carbonyl)-2-methyl-2H-pyrazole-3-carboxylic acid (2-phenyl-imidazo[1,2-a]pyridin-7-yl)-amide]",< 100 pM
10,"Cn1ncc(C(=O)N2CCOCC2)c1C(=O)Nc1cc2nc(-c3ccccc3)cn2cc1Cl [Example 72, 2-Methyl-4-(morpholine-4-carbonyl)-2H-pyrazole-3-carboxylic acid (6-chloro-2-phenyl-imidazo[1,2-a]pyridin-7-yl)-amide]",800 pM
11,"Cn1ncc(C(=O)N2CCOCC2CO)c1C(=O)Nc1ccn2cc(-c3ccccc3)nc2c1 (stereo not drawn) [Example 53, 4-(3-Hydroxymethyl-morpholine-4-carbonyl)-2-methyl-2H-pyrazole-3-carboxylic acid (2-phenyl-imidazo[1,2-a]pyridin-7-yl)-amide]",3300 pM
12,"Cn1ncc(C(=O)N2CCS(=O)(=O)CC2)c1C(=O)Nc1ccn2cc(-c3ccccc3)nc2c1 [Example 48, 4-(1,1-Dioxo-thiomorpholine-4-carbonyl)-2-methyl-2H-pyrazole-3-carboxylic acid (2-phenyl-imidazo[1,2-a]pyridin-7-yl)-amide]",800 pM
13,"CNC(=O)c1cn[nH]c1C(=O)Nc1ccn2cc(-c3ccccc3)nc2c1 [Example 65, 2H-Pyrazole-3,4-dicarboxylic acid 4-methylamide 3-[(2-phenyl-imidazo[1,2-a]pyridin-7-yl)-amide]]",41800 pM
14,"Cn1ncc(C(=O)N2CCOCC2)c1C(=O)Nc1cc2nc(-c3ccccc3)cn2cn1 [Example 89, 2-Methyl-4-(morpholine-4-carbonyl)-2H-pyrazole-3-carboxylic acid (2-phenyl-imidazo[1,2-c]pyrimidin-7-yl)-amide]",100 pM
15,"CN(C)C1CCN(C(=O)c2cnn(C)c2C(=O)Nc2ccn3cc(-c4ccccc4)nc3c2)C1 (stereo not drawn) [Example 59, 4-(3-Dimethylamino-pyrrolidine-1-carbonyl)-2-methyl-2H-pyrazole-3-carboxylic acid (2-phenyl-imidazo[1,2-a]pyridin-7-yl)-amide]",600 pM
16,"Cn1ncc(Cl)c1C(=O)Nc1ccn2cc(-c3nccs3)nc2c1 [Example 5, 4-Chloro-2-methyl-2H-pyrazole-3-carboxylic acid (2-thiazol-2-yl-imidazo[1,2-a]pyridin-7-yl)-amide]",45000 pM
17,"COCCCNC(=O)c1cnn(C)c1C(=O)Nc1ccn2cc(-c3ccccc3)nc2c1 [Example 28, 2-Methyl-2H-pyrazole-3,4-dicarboxylic acid 4-[(3-methoxy-propyl)-amide]3-[(2-phenyl-imidazo[1,2-a]pyridin-7-yl)-amide]]",700 pM
18,"Cn1ncc(C(=O)N2CCC2)c1C(=O)Nc1cc2nc(-c3ccccc3)cn2cc1Cl [Example 70, 4-(Azetidine-1-carbonyl)-2-methyl-2H-pyrazole-3-carboxylic acid (6-chloro-2-phenyl-imidazo[1,2-a]pyridin-7-yl)-amide]",300 pM
